Reference: patent US7053245B2, “N-acylamino benzyl ether derivatives” (Hoffmann-La Roche Inc., priority 2002, dated 2006)
Counter-ions that a name gives are not always drawn.

Molecular target: T1, human MAO-B (Homo sapiens, UniProt P27338)
T1 construct: expressed in transfected cells; host or cells: EBNA cells (transient transfection); cell membranes used
T1 sequence (P27338 1-520): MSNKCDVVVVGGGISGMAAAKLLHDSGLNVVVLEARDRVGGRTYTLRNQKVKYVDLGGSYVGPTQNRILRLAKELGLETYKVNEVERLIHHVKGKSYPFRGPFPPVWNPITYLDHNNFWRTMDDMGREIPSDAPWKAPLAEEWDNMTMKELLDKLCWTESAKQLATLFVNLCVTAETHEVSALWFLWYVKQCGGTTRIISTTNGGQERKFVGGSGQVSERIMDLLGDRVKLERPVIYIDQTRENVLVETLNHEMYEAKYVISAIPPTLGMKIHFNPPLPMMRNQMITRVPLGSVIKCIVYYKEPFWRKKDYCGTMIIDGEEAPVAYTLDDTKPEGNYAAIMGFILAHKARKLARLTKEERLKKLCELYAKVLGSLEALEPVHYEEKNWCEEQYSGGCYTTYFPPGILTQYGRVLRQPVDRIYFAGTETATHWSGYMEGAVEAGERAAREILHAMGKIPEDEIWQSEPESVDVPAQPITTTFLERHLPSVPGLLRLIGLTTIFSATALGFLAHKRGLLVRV
Assay: MAO-B enzymatic activity, spectrophotometric Amplex Red/peroxidase assay on membranes of transfected EBNA cells
Format: biochemical
Conditions: membranes preincubated with compound 30 min at 37° C., pH 7.4; substrate tyramine; nine inhibitor concentrations in duplicate
Method: The cDNA's encoding human MAO-A and MAO-B were transiently transfected into EBNA cells using the procedure described by E.-J. Schlaeger and K. Christensen (Transient Gene Expression in Mammalian Cells Grown in Serum-free Suspension Culture; Cytotechnology, 15: 1-13, 1998). After transfection, cells were homogenised by means of a Polytron homogenizer in 20 mM Tris HCl buffer, pH 8.0, containing 0.5 mM EGTA and 0.5 mM phenylmethanesulfonyl fluoride. Cell membranes were obtained by centrifugation at 45,000×g and, after two rinsing step with 20 mM Tris HCl buffer, pH 8.0, containing 0.5 mM EGTA, membranes were eventually re-suspended in the above buffer and aliquots stored at −80° C. until use.
MAO-A and MAO-B enzymatic activity was assayed in 96-well-plates using a spectrophometric assay adapted from the method described by M. Zhou and N. Panchuk-Voloshina (A One-Step Fluorometric Method for the Continuous Measurement of Monoamine Oxidase Activity, Analytical Biochemistry, 253: 169-174, 1997). Briefly, membrane aliquots were incubated in 0.1 M potassium phosphate buffer, pH 7.4, for 30 min at 37° C. with or without various concentrations of the compounds. After this period, the enzymatic reaction was started by the addition of the MAO substrate tyramine together with 1 U/ml horse-radish peroxidase (Roche Biochemicals) and 80 μM N-acetyl-3,7,-dihydroxyphenoxazine (Amplex Red, Molecular Probes). The samples were further incubated for 30 min at 37° C. in a final volume of 200 μl and absorbance was then determine at a wavelength of 570 nm using a SpectraMax plate reader (Molecular Devices). Background (non-specific) absorbance was determined in the presence of 10 μM clorgyline for MAO-A or 10 μM L-deprenyl for MAO-B.
IC50 values were determined from inhibition curves obtained using nine inhibitor concentrations in duplicate, by fitting data to a four parameter logistic equation using a computer program.

Row | IC50 | Structure (SMILES)
1 | 11 nM | COC(=O)CC(=O)Nc1ccc(OCc2cccc(F)c2)cc1 [Example 1, N-[4-(3-Fluoro-benzyloxy)-phenyl]-malonamic acid methyl ester]
2 | 7.9 nM | NC(=O)C1(C(=O)Nc2ccc(OCc3cccc(F)c3)cc2)CC1 [Example 2, Cyclopropane-1,1-dicarboxylic acid amide [4-(3-fluoro-benzyloxy)-phenyl]-amide]
3 | 10.9 nM | NC(=O)CC(=O)Nc1ccc(OCc2cccc(F)c2)cc1 [Example 3, N-[4-(3-Fluoro-benzyloxy)-phenyl]-malonamide]
4 | 13 nM | CC(C(N)=O)C(=O)Nc1ccc(OCc2cccc(F)c2)cc1 (stereo not drawn) [Example 6, N-[4-(3-Fluoro-benzyloxy)-phenyl]-2-methyl-malonamide]
5 | 9.6 nM | COC(=O)CC(=O)Nc1ccc(OCc2cccc(F)c2)c(F)c1 [Example 8, N-[3-Fluoro-4-(3-fluoro-benzyloxy)-phenyl]-malonamic acid methyl ester]
6 | 7.2 nM | NC(=O)CC(=O)Nc1ccc(OCc2cccc(F)c2)c(F)c1 [Example 9, N-[3-Fluoro-4-(3-fluoro-benzyloxy)-phenyl]-malonamide]
7 | 11.2 nM | COC(=O)CC(=O)Nc1ccc(OCc2ccc(F)cc2)cc1 [Example 10, N-[4-(4-Fluoro-benzyloxy)-phenyl]-malonamic acid methyl ester]
8 | 7.5 nM | NC(=O)CC(=O)Nc1ccc(OCc2ccc(F)cc2)cc1 [Example 11, N-[4-(4-Fluoro-benzyloxy)-phenyl]-malonamide]
9 | 9 nM | COC(=O)CC(=O)Nc1ccc(OCc2cccc(F)c2)cc1F [Example 14, N-[2-Fluoro-4-(3-fluoro-benzyloxy)-phenyl]-malonamic acid methyl ester]
10 | 11 nM | COC(=O)CC(=O)Nc1ccc(OCc2ccc(F)cc2F)cc1 [Example 25, N-[4-(2,4-Difluoro-benzyloxy)-phenyl]-malonamic acid methyl ester]
11 | 11 nM | COC(=O)CC(=O)Nc1ccc(OCc2cc(F)c(F)cc2F)cc1 [Example 27, N-[4-(2,4,5-Trifluoro-benzyloxy)-phenyl]-malonamic acid methyl ester]
12 | 8 nM | NC(=O)CC(=O)Nc1ccc(OCc2ccc(F)cc2F)cc1 [Example 28, N-[4-(2,4-Difluoro-benzyloxy)-phenyl]-malonamide]
13 | 8 nM | NC(=O)CC(=O)Nc1ccc(OCc2cc(F)c(F)cc2F)cc1 [Example 29, N-[4-(2,4,5-Trifluoro-benzyloxy)-phenyl]-malonamide]
14 | 18 nM | NC(=O)CC(=O)Nc1ccc(OCc2ccc(Cl)cc2)cc1 [Example 34, N-[4-(4-Chloro-benzyloxy)-phenyl]-malonamide]
15 | 16 nM | NC(=O)CC(=O)Nc1ccc(OCc2cccc(F)c2)cc1O [Example 38, N-[4-(3-Fluoro-benzyloxy)-2-hydroxy-phenyl]-malonamide]
16 | 5 nM | COC(=O)CC(=O)Nc1ccc(OCc2ccc(F)cc2)cc1F [Example 39, N-[2-Fluoro-4-(4-fluoro-benzyloxy)-phenyl]-malonamic acid methyl ester]
17 | 15 nM | NC(=O)CC(=O)Nc1ccc(OCc2ccc(F)cc2)cc1F [Example 40, N-[2-Fluoro-4-(4-fluoro-benzyloxy)-phenyl]-malonamide]
18 | 13 nM | COC(=O)CC(=O)Nc1ccc(OCc2cc(C(F)(F)F)cc(C(F)(F)F)c2)cc1F [Example 41, N-[4-(3,5-Bis-trifluoromethyl-benzyloxy)-2-fluoro-phenyl]-malonamic acid methyl ester]
19 | 9 nM | NC(=O)CC(=O)Nc1ccc(OCc2ccc(C(F)(F)F)cc2)cc1F [Example 44, N-[2-Fluoro-4-(4-trifluoromethyl-benzyloxy)-phenyl]-malonamide]
20 | 14 nM | COC(=O)CC(=O)Nc1ccc(OCc2cccc(F)c2)c(C)c1 [Example 47, N-[4-(3-Fluoro-benzyloxy)-3-methyl-phenyl]-malonamic acid methyl ester]
21 | 19 nM | Cc1cc(NC(=O)CC(N)=O)ccc1OCc1cccc(F)c1 [Example 48, N-[4-(3-Fluoro-benzyloxy)-3-methyl-phenyl]-malonamide]
22 | 10 nM | COC(=O)CC(=O)Nc1ccc(OCc2cccc(F)c2)c(Cl)c1 [Example 49, N-[3-Chloro-4-(3-fluoro-benzyloxy)-phenyl]-malonamic acid methyl ester]
23 | 6 nM | NC(=O)CC(=O)Nc1ccc(OCc2cccc(F)c2)c(Cl)c1 [Example 50, N-[3-Chloro-4-(3-fluoro-benzyloxy)-phenyl]-malonamide]
24 | 10 nM | COC(=O)CC(=O)Nc1ccc(C=Cc2ccc(F)cc2)cc1 [Example 56, N-{4-[2-(4-Fluoro-phenyl)-vinyl]-phenyl}-malonamic acid methyl ester]
25 | 18 nM | NC(=O)CC(=O)Nc1ccc(C=Cc2ccc(F)cc2)cc1 [Example 57, N-{4-[2-(4-Fluoro-phenyl)-vinyl]-phenyl}-malonamide]
26 | 16 nM | NCC(=O)Nc1ccc(OCc2ccc(F)cc2)cc1F [Example 66, 2-Amino-N-[2-fluoro-4-(4-fluoro-benzyloxy)-phenyl]-acetamide (1:1) hydrochloride]
27 | 11 nM | CC(=O)NCC(=O)Nc1ccc(OCc2ccc(F)cc2)cc1F [Example 70, 2-Acetylamino-N-[2-fluoro-4-(4-fluoro-benzyloxy)-phenyl]-acetamide]
28 | 7 nM | O=CNCC(=O)Nc1ccc(OCc2ccc(F)cc2)cc1F [Example 72, N-[2-Fluoro-4-(4-fluoro-benzyloxy)-phenyl]-2-formylamino-acetamide]
29 | 13 nM | CC(=O)NCC(=O)Nc1ccc(OCc2cccc(F)c2)cc1F [Example 75, 2-Acetylamino-N-[2-fluoro-4-(3-fluoro-benzyloxy)-phenyl]-acetamide]
30 | 16 nM | O=CNCC(=O)Nc1ccc(OCc2cccc(F)c2)cc1F [Example 76, N-[2-Fluoro-4-(3-fluoro-benzyloxy)-phenyl]-2-formylamino-acetamide]
